# Columns and labels:
# [1] = system: Human HCT-8 Ileocecal Xenograft; assay: Antitumor activity by I.V. push, daily × 5, against human HCT-8 ileocecal xenograft
# Excerpt: [M. G. Nair and Ann Abraham, U.S. Pat. No. 4,996,207 (1991); M. G. Nair, U.S. Pat. No. 5,073,554 (1991 )]. […] [Ann Abraham, M. G. Nair, et al. Advanced in Exp. Med. and Biol. 663-666 (1993)].
# MIR: Maximum inhibitory rate. TD: Tumor doubling time.
# CR: Complete Regression. PR Partial Regression.
# (§1) MWL: Maximum Weight Loss.
# [2] = Antitumor activity by continuous i.v. infusion (C.I.) × 5d against human HCT-8 ileocecal xenograft; assay type: in vivo, human (xenograft in nude mice); settings: mouse, in vivo, iv; 0.25 mg/kg, C.I. × 5d; read-out: death
# Excerpt: (§2) Antitumor Activity of MDAM by C.I. × 5d
# (§3) against HUMAN HCT-8 Ileocecal Xenograft
# (§4) MIR: Maximum inhibitory rate.
# (§5) TD: Tumor doubling time.
# (§6) CR: Complete Regression.
# (§7) PR: Partial Regression.
# as §1
# [3] = system: Human HCT-8 Ileocecal Xenograft; assay: as above; assay type: in vivo, human (xenograft in nude mice); settings: for CR: Complete Regression / MIR: Maximum inhibitory rate / PR: Partial Regression / TD: Tumor doubling time: C.I. × 5d
# Excerpt: as §2, §3, §4, §5, §6, §7, §1
compound,measurement,setting,value
"CN(Cc1cnc2nc(N)nc(N)c2n1)c1ccc(C(=O)N[C@@H](CCC(=O)O)C(=O)O)cc1 [MTX, methotrexate, reference compound]",CR: Complete Regression,"[1]; 1 mg/kg, i.v. push daily × 5",0%
same,MIR: Maximum inhibitory rate,"[1]; 1 mg/kg, i.v. push daily × 5",29.8 ± 8.6%
same,MWL: Maximum Weight Loss,"[1]; 1 mg/kg, i.v. push daily × 5",14.0 ± 3.0%
same,PR: Partial Regression,"[1]; 1 mg/kg, i.v. push daily × 5",0%
same,TD: Tumor doubling time,"[1]; 1 mg/kg, i.v. push daily × 5",4.6 ± 0.6 days
same,measurable antitumor activity,"[1]; iv push, HCT-8 xenograft",did not exhibit any measurable antitumor activity
same,mortality,[2],100%
same,CR: Complete Regression,[3]; 0.1 mg/kg,0%
same,MIR: Maximum inhibitory rate,[3]; 0.1 mg/kg,50.6 ± 9.6%
same,PR: Partial Regression,[3]; 0.1 mg/kg,0%
same,TD: Tumor doubling time,[3]; 0.1 mg/kg,4.8 ± 0.4 days
same,CR: Complete Regression,[3]; 0.2 mg/kg,0%
same,MIR: Maximum inhibitory rate,[3]; 0.2 mg/kg,52.8 ± 8.5%
same,PR: Partial Regression,[3]; 0.2 mg/kg,0%
same,TD: Tumor doubling time,[3]; 0.2 mg/kg,5 ± 0.5 days
same,CR: Complete Regression,[3]; 0.25 mg/kg,0%
same,PR: Partial Regression,[3]; 0.25 mg/kg,0%
same,measurable antitumor activity,"[3]; continuous 5 day iv infusion, HCT-8 xenograft",did not exhibit any measurable antitumor activity
